`COc1ncnc2c1ncn2[C@@H]1O[C@H](COC(=O)C(C)(C)C)[C@@H](O)[C@@H]1OC(=O)C(C)(C)C` showed a logP of 3.4. As for `CCCCC(=O)O[C@H]1[C@H](OC(=O)CCCC)[C@@H](CO)O[C@H]1n1cnc2c(OC)ncnc21`, the logP turned out to be 3.83. The result for `COc1ncnc2c1ncn2[C@@H]1O[C@H](CO)[C@@H](O)[C@@H]1O` reads 0.5. With `COc1ncnc2c1ncn2[C@@H]1O[C@H](COS(C)(=O)=O)[C@@H](OS(C)(=O)=O)[C@@H]1OS(C)(=O)=O`, the log partition coefficient (logP) was determined as 0.58. Under `CCC(=O)O[C@H]1[C@H](OC(=O)CC)[C@@H](CO)O[C@H]1n1cnc2c(OC)ncnc21` stands 2.07. In turn, `CCCCC(=O)OC[C@H]1O[C@@H](n2cnc3c(OC)ncnc32)[C@@H](OC(=O)CCCC)[C@@H]1O` yielded a logP of 3.58. Turning to `CCC(=O)OC[C@H]1O[C@@H](n2cnc3c(OC)ncnc32)[C@@H](O)[C@@H]1OC(=O)CC`, the logP amounted to 2.7. The result for `COc1ncnc2c1ncn2[C@@H]1O[C@H](COC(=O)C(C)C)[C@@H](O)[C@@H]1OC(=O)C(C)C` reads 2.7; that for `CCCC(=O)OC1C(CO)OC(n2cnc3c(OC)ncnc32)C1OC(=O)CCC` (stereo not given), 2.9. Under `COc1ncnc2c1ncn2[C@@H]1O[C@H](CO)[C@@H](OC(=O)C(C)C)[C@@H]1OC(=O)C(C)C` stands 2.82; under `COc1ncnc2c1ncn2[C@@H]1O[C@H](COC(C)=O)[C@@H](O)[C@@H]1OC(C)=O`, 1.4; under `COc1ncnc2c1ncn2[C@@H]1O[C@H](COC(=O)C(C)C)[C@@H](OC(=O)C(C)C)[C@@H]1O`, 3.63.

As for `COc1ncnc2c1ncn2[C@@H]1O[C@H](CO)[C@@H](OC(=O)c2ccccc2)[C@@H]1OC(=O)c1ccccc1`, the logP was 3.71. As for `CCCC(=O)OC[C@H]1O[C@@H](n2cnc3c(OC)ncnc32)[C@@H](O)[C@@H]1OC(=O)CCC`, the lipophilicity (logP) came out at 3.67.

In turn, `COc1ncnc2c1ncn2[C@@H]1O[C@H](COC(C)=O)[C@@H](OC(C)=O)[C@@H]1OC(C)=O` displayed a log partition coefficient (logP) of 1.93. The compound `COc1ncnc2c1ncn2[C@@H]1O[C@H](CO)[C@@H](OC(=O)C(C)(C)C)[C@@H]1OC(=O)C(C)(C)C` yielded a logP of 3.61. Take `COc1ncnc2c1ncn2[C@@H]1O[C@H](COC(=O)c2ccccc2)[C@@H](O)[C@@H]1OC(=O)c1ccccc1`: the logP was 3.39.

Take `CCC(=O)OC[C@H]1O[C@@H](n2cnc3c(OC)ncnc32)[C@@H](OC(=O)CC)[C@@H]1OC(=O)CC`: the log partition coefficient (logP) was 2.75. Under `COc1ncnc2c1ncn2[C@@H]1O[C@H](CO)[C@@H](OC(=O)COc2ccccc2)[C@@H]1OC(=O)COc1ccccc1` stands 3.4; under `COc1ncnc2c1ncn2[C@@H]1O[C@H](CO)[C@@H](OC(=O)Cc2ccccc2)[C@@H]1OC(=O)Cc1ccccc1`, 3.48; under `COc1ncnc2c1ncn2[C@@H]1O[C@H](COC(=O)Cc2ccccc2)[C@@H](OC(=O)Cc2ccccc2)[C@@H]1O`, 4.37.

For the compound `COc1ccc(C(=O)OC[C@H]2O[C@@H](n3cnc4c(OC)ncnc43)[C@@H](OC(=O)c3ccc(OC)cc3)[C@@H]2O)cc1`, the logP was determined as 3.65. `COc1ncnc2c1ncn2[C@@H]1O[C@H](COC(=O)COc2ccccc2)[C@@H](OC(=O)COc2ccccc2)[C@@H]1O` registered a log partition coefficient (logP) of 4.06. `COc1ncnc2c1ncn2[C@@H]1O[C@H](COC(C)=O)[C@@H](OC(C)=O)[C@@H]1O` returned a logP of 1.75. `COc1ncnc2c1ncn2[C@@H]1O[C@H](CO)[C@@H](OC(C)=O)[C@@H]1OC(C)=O` gave a logP of 1.33.

Values taken from the SangsterLogP compilation.
